The values below come from patent US8586747B2, “3,3-dimethyl tetrahydroquinoline derivatives” (Hoffmann-La Roche Inc., priority 2010, dated 2013).

The test concerns AMP-activated protein kinase (AMPK). Briefly: ADP Quest assay for AMPK activators. The test is classed as biochemical. On the set-up: key: fold AMPK activation with vs without activator at 30 µM. The conditions noted are these: fold of AMPK activation to phosphorylate SAMS peptide without and with an activator at the concentration of 30 µM. The procedure, abridged: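 E30, the fold increase in SAMS peptide phosphorylation at 30 µM compound relative to no activator, is derived from kinetic fluorescent detection of ADP (ex 530, em 590 nm). AMPK starts the ATP-containing reaction at room temperature; compounds span […] by 2-fold steps, AMP serves as reference.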
With `CC1(C)Cc2c(C(=O)O)ccc(Cl)c2NC1c1cccc(N2CCOCC2)c1` (stereo not drawn) [Example 111, 8-Chloro-3,3-dimethyl-2-(3-morpholin-4-yl-phenyl)-1,2,3,4-tetrahydro-quinoline-5-carboxylic acid], the E30 is recorded as 1.24.
The value for `CC1(C)Cc2cc(C(=O)O)cc(Cl)c2NC1c1cccc(N2CCOCC2)c1` (stereo not drawn) [Example 112, 8-Chloro-3,3-dimethyl-2-(3-morpholin-4-yl-phenyl)-1,2,3,4-tetrahydro-quinoline-6-carboxylic acid] was 1.22.
The value for `CC1(C)Cc2cc(C(=O)O)ccc2NC1c1ccc(F)c(Cl)c1` (stereo not drawn) [Example 113, 2-(3-Chloro-4-fluoro-phenyl)-3,3-dimethyl-1,2,3,4-tetrahydro-quinoline-6-carboxylic acid] was 1.21; that for `CC1(C)Cc2cc(C(=O)NS(=O)(=O)C3CC3)ccc2NC1c1cncc(N2CCOCC2)c1` (stereo not drawn) [Example 114, Cyclopropanesulfonic acid [3,3-dimethyl-2-(5-morpholin-4-yl-pyridin-3-yl)-1,2,3,4-tetrahydro-quinoline-6-carbonyl]-amide] was 1.21.
For `CC1(C)Cc2cc(C(=O)NS(C)(=O)=O)cc(Cl)c2NC1c1cccc(N2CCOCC2)c1` (stereo not drawn) [Example 115, N-[8-Chloro-3,3-dimethyl-2-(3-morpholin-4-yl-phenyl)-1,2,3,4-tetrahydro-quinoline-6-carbonyl]-methanesulfonamide], the E30 worked out at 1.2.
In the case of `CC1(C)Cc2cc(C(=O)NS(=O)(=O)C3CC3)ccc2NC1c1cccc(N2CCOC2=O)c1` (stereo not drawn) [Example 116, Cyclopropanesulfonic acid {3,3-dimethyl-2-[3-(2-oxo-oxazolidin-3-yl)-phenyl]-1,2,3,4-tetrahydro-quinoline-6-carbonyl}-amide] it was 1.2; in that of `CC1(C)Cc2c(ccc(F)c2C(=O)NS(=O)(=O)C2CC2)NC1c1cccc(N2CCOCC2)c1` (stereo not drawn) [Example 117, Cyclopropanesulfonic acid [6-fluoro-3,3-dimethyl-2-(3-morpholin-4-yl-phenyl)-1,2,3,4-tetrahydro-quinoline-5-carbonyl]-amide], 1.7; in that of `CC1(C)Cc2c(ccc(F)c2C(=O)NS(C)(=O)=O)NC1c1cccc(N2CCOCC2)c1` (stereo not drawn) [Example 118, N-[6-Fluoro-3,3-dimethyl-2-(3-morpholin-4-yl-phenyl)-1,2,3,4-tetrahydro-quinoline-5-carbonyl]-methanesulfonamide], 1.64.
The value for `CNCCN(C)c1cccc(C2Nc3ccc(C(=O)O)cc3CC2(C)C)c1` (stereo not drawn) [Example 120, 3,3-Dimethyl-2-{3-[methyl-(2-methylamino-ethyl)-amino]-phenyl}-1,2,3,4-tetrahydro-quinoline-6-carboxylic acid] was 1.5.
The value for `CC1(C)Cc2c(ccc(F)c2C(=O)O)NC1c1cccc(N2CCOCC2)c1` (stereo not drawn) [Example 121, 6-Fluoro-3,3-dimethyl-2-(3-morpholin-4-yl-phenyl)-1,2,3,4-tetrahydro-quinoline-5-carboxylic acid] was 1.42; that for `CC(C)[C@H]1COC(=O)N1c1cccc(C2Nc3ccc(C(=O)O)cc3CC2(C)C)c1` (stereo partly drawn) [Example 122] was 1.39; that for `CC(C)[C@@H]1COC(=O)N1c1cccc(C2Nc3ccc(C(=O)NS(C)(=O)=O)cc3CC2(C)C)c1` (stereo partly drawn) [Example 123, N-{2-[3-((R)-4-Isopropyl-2-oxo-oxazolidin-3-yl)-phenyl]-3,3-dimethyl-1,2,3,4-tetrahydro-quinoline-6-carbonyl}-methanesulfonamide] was 1.36.
Molecule `CC(C)[C@@H]1COC(=O)N1c1cccc(C2Nc3ccc(C(=O)NS(=O)(=O)C4CC4)cc3CC2(C)C)c1` (stereo partly drawn) [Example 125, Cyclopropanesulfonic acid {2-[3-((R)-4-isopropyl-2-oxo-oxazolidin-3-yl)-phenyl]-3,3-dimethyl-1,2,3,4-tetrahydro-quinoline-6-carbonyl}-amide] showed an E30 of 1.33.
In the case of `CN1CCN(c2cccc(C3Nc4ccc(C(=O)O)cc4CC3(C)C)c2)C(=O)C1=O` (stereo not drawn) [Example 126, 3,3-Dimethyl-2-[3-(4-methyl-2,3-dioxo-piperazin-1-yl)-phenyl]-1,2,3,4-tetrahydro-quinoline-6-carboxylic acid] it was 1.28.
The value for `CC1(C)Cc2cc(C(=O)NS(C)(=O)=O)ccc2NC1c1cccc(N2C(=O)OC[C@H]2Cc2ccccc2)c1` (stereo partly drawn) [Example 128, N-{2-[3-((R)4-Benzyl-2-oxo-oxazolidin-3-yl)-phenyl]-3,3-dimethyl-1,2,3,4-tetrahydro-quinoline-6-carbonyl}-methanesulfonamide] was 1.26; that for `CN1CCN(c2cccc(C3Nc4ccc(C(=O)NS(=O)(=O)C5CC5)cc4CC3(C)C)c2)C(=O)C1=O` (stereo not drawn) [Example 129, Cyclopropanesulfonic acid {3,3-dimethyl-2-[3-(4-methyl-2,3-dioxo-piperazin-1-yl)-phenyl]-1,2,3,4-tetrahydro-quinoline-6-carbonyl}-amide] was 1.25.
The value for `CC1(C)Cc2cc(C(=O)NS(=O)(=O)C3CC3)ccc2NC1c1cccc(N2C(=O)OC[C@H]2Cc2ccccc2)c1` (stereo partly drawn) [Example 130, Cyclopropanesulfonic acid {2-[3-((R)4-benzyl-2-oxo-oxazolidin-3-yl)-phenyl]-3,3-dimethyl-1,2,3,4-tetrahydro-quinoline-6-carbonyl}-amide] was 1.25.
As to `CN1CCN(c2cccc(C3Nc4ccc(C(=O)NS(C)(=O)=O)cc4CC3(C)C)c2)C(=O)C1=O` (stereo not drawn) [Example 131, N-{3,3-Dimethyl-2-[3-(4-methyl-2,3-dioxo-piperazin-1-yl)-phenyl]-1,2,3,4-tetrahydro-quinoline-6-carbonyl}-methanesulfonamide], the E30 is 1.24.
In the case of `CC1(C)Cc2cc(C(=O)NS(=O)(=O)C3CC3)ccc2NC1c1cccc(N2C(=O)OC[C@@H]2Cc2ccccc2)c1` (stereo partly drawn) [Example 132, Cyclopropanesulfonic acid {2-[3-((S)-4-benzyl-2-oxo-oxazolidin-3-yl)-phenyl]-3,3-dimethyl-1,2,3,4-tetrahydro-quinoline-6-carbonyl}-amide] it was 1.23; in that of `CC1(C)Cc2c(C(=O)NS(=O)(=O)C3CC3)ccc(Cl)c2NC1c1cccc(N2CCOCC2)c1` (stereo not drawn) [Example 133, Cyclopropanesulfonic acid [8-chloro-3,3-dimethyl-2-(3-morpholin-4-yl-phenyl)-1,2,3,4-tetrahydro-quinoline-5-carbonyl]-amide], 1.2; in that of `CC1(C)Cc2c(cc(F)cc2C(=O)O)NC1c1cccc(N2CCOCC2)c1` (stereo not drawn) [Example 134, 7-Fluoro-3,3-dimethyl-2-(3-morpholin-4-yl-phenyl)-1,2,3,4-tetrahydro-quinoline-5-carboxylic acid], 1.32.
The value for `CC1(C)Cc2c(cc(F)cc2C(=O)NS(C)(=O)=O)NC1c1cccc(N2CCOCC2)c1` (stereo not drawn) [Example 135, N-[7-Fluoro-3,3-dimethyl-2-(3-morpholin-4-yl-phenyl)-1,2,3,4-tetrahydro-quinoline-5-carbonyl]-methanesulfonamide] was 1.31; that for `CC1(C)Cc2cc(C(=O)O)ccc2NC1c1cccc(-n2cnc3c(c2=O)CCN(Cc2ccccc2)C3)c1` (stereo not drawn) [Example 136, 2-[3-(7-Benzyl-4-oxo-5,6,7,8-tetrahydro-4H-pyrido[3,4-d]pyrimidin-3-yl)-phenyl]-3,3-dimethyl-1,2,3,4-tetrahydro-quinoline-6-carboxylic acid] was 1.3; that for `CC1(C)Cc2ccc(C(=O)O)c(F)c2NC1c1cccc(N2CCOCC2)c1` (stereo not drawn) [Example 137, 8-Fluoro-3,3-dimethyl-2-(3-morpholin-4-yl-phenyl)-1,2,3,4-tetrahydro-quinoline-7-carboxylic acid] was 1.26.
The value for `CC1(C)Cc2c(cc(F)cc2C(=O)NS(=O)(=O)C2CC2)NC1c1cccc(N2CCOCC2)c1` (stereo not drawn) [Example 138, Cyclopropanesulfonic acid [7-fluoro-3,3-dimethyl-2-(3-morpholin-4-yl-phenyl)-1,2,3,4-tetrahydro-quinoline-5-carbonyl]-amide] was 1.21; that for `CN1CCN(c2cccc(C3Nc4c(cc(Cl)cc4C(=O)NS(=O)(=O)C4CC4)CC3(C)C)c2)CC1` (stereo not drawn) [Example 139, Cyclopropanesulfonic acid {6-chloro-3,3-dimethyl-2-[3-(4-methyl-piperazin-1-yl)-phenyl]-1,2,3,4-tetrahydro-quinoline-8-carbonyl}-amide] was 1.38; that for `CC(C)c1ccc(-c2cccc(C3Nc4c(cc(Cl)cc4C(=O)O)CC3(C)C)c2)cc1` (stereo not drawn) [Example 140, 6-Chloro-2-(4′-isopropyl-biphenyl-3-yl)-3,3-dimethyl-1,2,3,4-tetrahydro-quinoline-8-carboxylic acid] was 1.34.
Take `CN(C)c1ccc(-c2cccc(C3Nc4c(cc(Cl)cc4C(=O)NS(=O)(=O)C4CC4)CC3(C)C)c2)cc1` (stereo not drawn) [Example 141, Cyclopropanesulfonic acid [6-chloro-2-(4′-dimethylamino-biphenyl-3-yl)-3,3-dimethyl-1,2,3,4-tetrahydro-quinoline-8-carbonyl]-amide]: the E30 is 1.3.
In the case of `CC(C)(C)c1ccc(-c2cccc(C3Nc4c(cc(Cl)cc4C(=O)O)CC3(C)C)c2)cc1` (stereo not drawn) [Example 142, 2-(4′-tert-Butyl-biphenyl-3-yl)-6-chloro-3,3-dimethyl-1,2,3,4-tetrahydro-quinoline-8-carboxylic acid] it was 1.54; in that of `CC(C)(C)c1ccc(-c2cccc(C3Nc4c(cc(Cl)cc4C(=O)NS(=O)(=O)C4CC4)CC3(C)C)c2)cc1` (stereo not drawn) [Example 143, Cyclopropanesulfonic acid [2-(4′-tert-butyl-biphenyl-3-yl)-6-chloro-3,3-dimethyl-1,2,3,4-tetrahydro-quinoline-8-carbonyl]-amide], 1.33.
